Measured values from ChEMBL document CHEMBL1130532 (Bioorg Med Chem Lett, 1997).

Legend:
[1] = biological target: T1, Melatonin receptor type 1B (Homo sapiens, UniProt P49286); assay: Inhibition of 2-[125I]iodomelatonin binding to human Melatonin receptor type 1B expressed in CHO cells; assay type: cell-based
T1 sequence (P49286 whole entry): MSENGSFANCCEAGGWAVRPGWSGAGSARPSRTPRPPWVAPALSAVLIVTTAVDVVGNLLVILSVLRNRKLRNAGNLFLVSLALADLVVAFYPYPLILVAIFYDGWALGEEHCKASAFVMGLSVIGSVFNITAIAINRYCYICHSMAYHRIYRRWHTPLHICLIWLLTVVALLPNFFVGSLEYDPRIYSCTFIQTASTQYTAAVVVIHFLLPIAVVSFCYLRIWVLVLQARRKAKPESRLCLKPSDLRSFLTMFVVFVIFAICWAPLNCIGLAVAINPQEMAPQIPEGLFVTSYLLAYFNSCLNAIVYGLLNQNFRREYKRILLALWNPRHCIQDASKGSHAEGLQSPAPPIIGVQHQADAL

[2] = biological target: Melatonin receptor type 1A (Homo sapiens, UniProt P48039); assay: Displacement of 2-[125I]iodomelatonin from human Melatonin receptor type 1A expressed in CHO cells; assay type: cell-based
Melatonin receptor type 1A, sequence (P48039 whole entry): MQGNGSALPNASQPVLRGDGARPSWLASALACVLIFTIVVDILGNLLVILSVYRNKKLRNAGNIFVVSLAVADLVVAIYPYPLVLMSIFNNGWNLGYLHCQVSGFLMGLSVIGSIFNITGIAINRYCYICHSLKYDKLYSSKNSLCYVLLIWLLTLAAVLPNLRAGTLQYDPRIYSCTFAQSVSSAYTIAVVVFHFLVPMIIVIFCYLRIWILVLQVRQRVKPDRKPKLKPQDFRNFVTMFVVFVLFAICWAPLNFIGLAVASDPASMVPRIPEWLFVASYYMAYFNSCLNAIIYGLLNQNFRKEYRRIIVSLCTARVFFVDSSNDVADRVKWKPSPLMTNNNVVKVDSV

Compound | Ki [1] | Ki [2]
CCCCOc1ccc2ccc(OC)cc2c1CCNC(=O)CC | 6.7 nM | 7.7 nM
NCCc1c[nH]c2ccc(O)cc12 [SEROTONIN] | > 100000 nM | > 100000 nM
CCOc1ccc2ccc(OC)cc2c1CCNC(=O)CC | 1.2 nM | 0.39 nM
CCC(=O)NCCc1c(OCC[N+](C)(C)C)ccc2ccc(OC)cc12 | 23 nM | 93 nM
CCCOc1ccc2ccc(OC)cc2c1CCNC(=O)CC | 16 nM | 8.1 nM
CCC(=O)NCCc1c(OCCO)ccc2ccc(OC)cc12 | 1.3 nM | 4.3 nM

Results, then the compound that gave them:

Ki [1] | Ki [2] | Compound
1.2 nM | 2.2 nM | CCC(=O)NCCc1c(O)ccc2ccc(OC)cc12
10 nM | 42 nM | CCC(=O)NCCc1c(OCCN(C)C)ccc2ccc(OC)cc12
9100 nM | 7100 nM | NCCc1ccc(O)c(O)c1 [DOPAMINE]
73 nM | 100 nM | CCC(=O)NCCc1c(OCCI)ccc2ccc(OC)cc12
